Experiment [1] concerns MMP-9 mRNA. Description: MMP-9 mRNA level in mature dendritic cells after induction of differentiation. Format: cell-based, human. The note with it: medium with 1 μM for three days, or 5 μM for one day then 1 μM for two days, FIG. 9.
Protocol: Total RNA was isolated from the cultured cells (1×10^6 cells) using TRIzol reagent (Life Technologies). Each RNA sample (2 μg) was converted to cDNA in 50 μl of reaction mixture containing 75 mM KCl, 50 mM Tris-HCl (pH 8.3), 3 mM MgCl2, 10 mM dithiothreitol, 0.5 mM each of dNTPs, 2 μM random primer, and 1000 U of TaqMan Reverse Transcription reagent. Each cDNA (10 ng) was amplified in triplicate using an SYBR-Green PCR assay kit, and sequenced using an ABI PRISM 7900HT sequence Detection System. PCR was carried out by incubation at 50° C. for 2 minutes and then at 95° C. for 15 minutes, followed by 15 cycles of denaturation at 95° C., 30 cycles of annealing at 60° C., and extension at 72° C. for 1 minute. […] The mature dendritic cells obtained in Example 1 were cultured in the culture medium supplemented with 1 μM all-trans retinoic acid for three days or in the culture medium supplemented with 5 μM all-trans retinoic acid for one day. The cells were further cultured in the culture medium supplemented with 1 μM all-trans retinoic acid for two days, to induce the differentiation of the dendritic cells. After the induction of the differentiation, MMP-9 mRNA level in the cells was determined.
For experiment [2], the system named is dendritic cells. The experiment in a line: Infiltration activity of dendritic cells by the Transwell Chamber method (Matrigel). Format: cell-based, human. The note with it: for infiltration activity of immature and mature dendritic cells: 10 ng/ml added, FIG. 8. The method, then:
Peripheral blood mononuclear cells (PBMCs) from healthy subjects were separated by Ficoll-Paque density gradient centrifugation. Peripheral blood mononuclear cells were dispersed at a cell density of 2×10^6 cells/ml in complete RPMI-1640e medium, and the resulting suspension is incubated at 37° C. for one hour to give adhesive cells. Nonadhesive cells were removed by washing five times with RPMI-1640 medium. The adhesive cells were cultured in RPMI medium containing 1000 U/ml GM-CSF and 1000 U/ml IL-4, 10% FBS, 25 mM HEPES, 2 mM L-glutamic acid, 50 μM 2-ME, 1% nonessential amino acids, and 2 mM sodium pyruvate under hypoxic conditions (oxygen concentration was 1%; herein, hypoxic conditions refer to conditions where the oxygen concentration is 1%) or normoxic conditions (oxygen concentration was 20%; herein, normoxic conditions refer to conditions where the oxygen concentration is 20%) at 37° C. under an 5% carbon dioxide atmosphere for six days with half of the medium being changed every day. On day six, the cells were collected and divided into two groups. The first group was cultured in a medium containing IL-4 and GM-CSF for one day, and then used as immature dendritic cells. […]
The infiltration activity of dendritic cells was measured by the Transwell Chamber method using the following procedure: a Matrigel was immobilized onto a membrane that separates a top chamber and a bottom chamber; after washing, dendritic cells were placed in the top chamber; 100 ng/ml recombinant human RANTES was placed in the bottom chamber when immature dendritic cells were used, or 100 ng/ml recombinant human MCP-3 was placed in the bottom chamber when mature dendritic cells were used; cells migrating into the bottom chamber were counted. […]
The mature dendritic cells obtained in Example 1 were cultured in the culture medium supplemented with 1 μM all-trans retinoic acid to induce their differentiation. Then, the infiltration activity of dendritic cells was determined by the same procedure described in Example 7.

Consider `CC1=C(/C=C/C(C)=C/C=C/C(C)=C/C(=O)O)C(C)(C)CCC1` [all-trans retinoic acid], for which, in experiment [1], the “MMP-9 mRNA level in the cells” value was “increased”. Further, in experiment [2] (mature dendritic cells differentiated under hypoxic conditions, 1 μM in culture medium, FIG. 10), the “infiltration activity of dendritic cells” value is reported as “increased”.
Take “TIMP-1 protein: TIMP-1 is an MMP-9-specific inhibitor; protein added at 10 ng/ml”: the “infiltration activity of immature and mature dendritic cells” value in experiment [2] (cells differentiated under hypoxic conditions) is reported as “not changed”; in experiment [2] (cells differentiated under normoxic conditions), “reduced”.
